Measured values as given in US6436945B2, “Substituted O6-benzyl-8-aza-guanines” (The United States of America as represented by the of …, priority 1994, dated 2002).

How the values were obtained:
[1] = biological target: T1, O^6-alkylguanine-DNA alkyltransferase (AGT) (Homo sapiens, UniProt P16455); experiment: AGT inactivation in intact HT29 cells
T1 sequence (P16455 1-207): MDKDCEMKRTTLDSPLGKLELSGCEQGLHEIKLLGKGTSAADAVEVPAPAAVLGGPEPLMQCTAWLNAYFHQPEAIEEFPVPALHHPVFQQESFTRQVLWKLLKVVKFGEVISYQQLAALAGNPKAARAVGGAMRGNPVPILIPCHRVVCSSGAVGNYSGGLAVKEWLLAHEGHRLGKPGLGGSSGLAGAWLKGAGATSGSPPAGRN
Description: (§1) The data represent the dose of compound required to produce 50% inactivation in cell-free extracts upon incubation for 30 min or in cells upon incubation for 4 hr.

[2] = Behaviour in solution at pH 13 (noted with UV spectra); format: physicochemical
[3] = biological target: T1, O^6-alkylguanine-DNA alkyltransferase (AGT); experiment: AGT inactivation in HT29 cell-free extract
Description: as §1

purified human AGT = biological target: T2, purified human AGT (Homo sapiens, UniProt P16455); experiment: Inactivation of purified human AGT; format: biochemical; conditions: Table 2 footnotes; read-out: ED50 with purified human AGT
T2 sequence (P16455 1-207): T1 sequence (P16455 1-207)

EC50 [1] [nM]	stability at pH 13 [2]	EC50 [3] [nM]	melting point [°C]	EC50 (purified human AGT) [nM]	SMILES
230	decomposes to 8-aza-O^6-benzylguanine	280	119 to 120	4000	CC(C)(C)C(=O)OCn1nnc2c(OCc3ccccc3)nc(N)nc21 [Compound 8b, 8-Aza-O^6-benzyl-9-(pivaloyloxymethyl)guanine]
300	decomposes to O^6-benzylguanine	9000		> 100000	CC(C)(C)C(=O)OCn1cnc2nc(N)nc(OCc3ccccc3)c21 [Compound 12, O^6-benzyl-7-(pivaloyloxymethyl)guanine]
160	decomposes to 8-aza-O^6-benzylguanine	110	153 to 154	2000	CC(C)(C)C(=O)OCn1nnc2nc(N)nc(OCc3ccccc3)c21 [Compound 9, 8-Aza-O^6-benzyl-7-(pivaloyloxymethyl)guanine]
50	decomposes to O^6-benzyl-8-bromoguanine	80	217 to 218	> 100000	CC(C)(C)C(=O)OCn1c(Br)nc2c(OCc3ccccc3)nc(N)nc21 [Compound 10b, O^6-Benzyl-8-bromo-9-(pivaloyloxymethyl)guanine]
